Test results taken from ChEMBL document CHEMBL1129399, “N-aryl-3,3,3-trifluoro-2-hydroxy-2-methylpropanamides: KATP potassium channel openers. Modifications on the western region” (J Med Chem, 1996).

Key:
Rattus norvegicus [1] = assay: in vivo activity was evaluated by measuring mean arterial pressure(MAP) after 1 hour.; format: functional, Artery
Rattus norvegicus [2] = assay: in vivo activity was evaluated by measuring mean arterial pressure(MAP) after 3 hour.; format: functional, Artery
Rattus norvegicus [3] = assay: in vivo activity was evaluated by measuring mean arterial pressure(MAP) after 5 hour.; format: functional, Artery
Rattus norvegicus [4] = assay: in vivo activity was evaluated by measuring heart rate(HR) after 1 hour.; format: functional
Rattus norvegicus [5] = assay: in vivo activity was evaluated by measuring heart rate(HR) after 3 hour.; format: functional
Rattus norvegicus [6] = assay: in vivo activity was evaluated by measuring heart rate(HR) after 5 hour.; format: functional
Rattus norvegicus [7] = assay: in vivo activity was evaluated by measuring interval between bladder contractions (IC) after 1 hour.; format: functional
Rattus norvegicus [8] = assay: in vivo activity was evaluated by measuring interval between bladder contractions (IC) after 3 hour.; format: functional
Rattus norvegicus [9] = assay: in vivo activity was evaluated by measuring interval between bladder contractions (IC) after 5 hour.; format: functional
Rattus norvegicus [10] = assay: in vivo activity was evaluated by measuring interval between bladder contractions (IC) after 1 hour.
Rattus norvegicus [11] = assay: In vivo activity was evaluated by measuring heart rate(HR) after 1 hour; format: functional
Rattus norvegicus [12] = assay: In vivo activity was evaluated by measuring heart rate(HR) after 3 hours; format: functional
Rattus norvegicus [13] = assay: In vivo activity was evaluated by measuring heart rate(HR) after 5 hours; format: functional
Rattus norvegicus [14] = assay: In vivo activity was evaluated by measuring interval between bladder contractions (IC) after 1 hour; format: functional
Rattus norvegicus [15] = assay: In vivo activity was evaluated by measuring interval between bladder contractions (IC) after 3 hours; format: functional
Rattus norvegicus [16] = assay: In vivo activity was evaluated by measuring interval between bladder contractions (IC) after 5 hours; format: functional
Rattus norvegicus [17] = assay: In vivo activity was evaluated by measuring mean arterial pressure(MAP) after 1 hour; format: functional, Artery
Rattus norvegicus [18] = assay: In vivo activity was evaluated by measuring mean arterial pressure(MAP) after 3 hours; format: functional, Artery
Rattus norvegicus [19] = assay: In vivo activity was evaluated by measuring mean arterial pressure(MAP) after 5 hours; format: functional, Artery
Rattus norvegicus [20] = assay: In vivo activity was evaluated by measuring mean arterial pressure (MAP) after 1 hour.; format: functional, Artery
Rattus norvegicus [21] = assay: In vivo activity was evaluated by measuring mean arterial pressure(MAP) after 3 hour.; format: functional, Artery
Rattus norvegicus [22] = assay: In vivo activity was evaluated by measuring mean arterial pressure(MAP) after 5 hour.; format: functional, Artery
Rattus norvegicus [23] = assay: In vivo activity was evaluated by measuring heart rate(HR) after 1 hour.; format: functional
Rattus norvegicus [24] = assay: In vivo activity was evaluated by measuring heart rate(HR) after 3 hour.; format: functional
Rattus norvegicus [25] = assay: In vivo activity was evaluated by measuring heart rate(HR) after 5 hour.; format: functional
Rattus norvegicus [26] = assay: In vivo activity was evaluated by measuring interval between bladder contractions (IC) after 1 hour.; format: functional
Rattus norvegicus [27] = assay: In vivo activity was evaluated by measuring interval between bladder contractions (IC) after 3 hour.; format: functional
Rattus norvegicus [28] = assay: In vivo activity was evaluated by measuring interval between bladder contractions (IC) after 5 hour.; format: functional
Rattus norvegicus [29] = assay: In vivo activity was evaluated by measuring mean arterial pressure(MAP) after 1 hour.; format: functional, Artery
Rattus norvegicus [30] = assay: In vivo activity was evaluated by measuring interval between bladder contractions (IC) after 1 hours; format: functional

| SMILES | Delta MAP (Rattus norvegicus [1]) | Delta MAP (Rattus norvegicus [2]) | Delta MAP (Rattus norvegicus [3]) | Delta HR (Rattus norvegicus [4]) | Delta HR (Rattus norvegicus [5]) | Delta HR (Rattus norvegicus [6]) | Delta IC (Rattus norvegicus [7]) | Delta IC (Rattus norvegicus [8]) | Delta IC (Rattus norvegicus [9]) | other results |
| --- | --- | --- | --- | --- | --- | --- | --- | --- | --- | --- |
| CC(O)(C(=O)Nc1ccc(S(=O)(=O)c2cccnc2)cc1)C(F)(F)F (stereo unspecified) | -16% | -14% | -11% | 19% | 3% | -2% | 64% | 83% | 125% | – |
| CN(c1ccccc1)S(=O)(=O)c1ccc(NC(=O)C(C)(O)C(F)(F)F)cc1 (stereo unspecified) | -1% | -3% | -4% | -1% | 4% | 1% | 30% | 33% | 56% | – |
| Cc1cc(C(=O)c2ccccc2)ccc1NC(=O)C(C)(O)C(F)(F)F (stereo unspecified) | -3% | -4% | -4% | 0% | -1% | 1% | – | 50% | 71% | Delta IC (Rattus norvegicus [10]): 26% |
| CC(O)(C(=O)Nc1ccc(S(=O)(=O)c2ccccc2)cc1)C(F)(F)F (stereo unspecified) | – | – | – | – | – | – | – | – | – | Delta HR (Rattus norvegicus [11]): 32%; Delta HR (Rattus norvegicus [12]): 27%; Delta HR (Rattus norvegicus [13]): -22%; Delta IC (Rattus norvegicus [14]): 24%; Delta IC (Rattus norvegicus [15]): 79%; Delta IC (Rattus norvegicus [16]): 97%; Delta MAP (Rattus norvegicus [17]): -25%; Delta MAP (Rattus norvegicus [18]): -24%; Delta MAP (Rattus norvegicus [19]): 23% |
| CC(O)(C(=O)Nc1ccc(C(=O)c2cccc(F)c2)cc1)C(F)(F)F (stereo unspecified) | 4% | 2% | 1% | 9% | 4% | 6% | – | 56% | 61% | Delta IC (Rattus norvegicus [10]): 25% |
| CC(O)(C(=O)Nc1ccc(S(=O)(=O)c2ccncc2)c(O)c1)C(F)(F)F (stereo unspecified) | 1% | 1% | -4% | 2% | 2% | 6% | 25% | 42% | 95% | – |
| CC(O)(C(=O)Nc1ccc(C(=O)c2ccccc2)cc1)C(F)(F)F (stereo unspecified) | – | – | – | – | – | – | – | – | – | Delta MAP (Rattus norvegicus [20]): -1%; Delta MAP (Rattus norvegicus [21]): 1%; Delta MAP (Rattus norvegicus [22]): 2%; Delta HR (Rattus norvegicus [23]): 2%; Delta HR (Rattus norvegicus [24]): -3%; Delta HR (Rattus norvegicus [25]): -4%; Delta IC (Rattus norvegicus [26]): 35%; Delta IC (Rattus norvegicus [27]): 73%; Delta IC (Rattus norvegicus [28]): 128% |
| CC(O)(C(=O)Nc1ccc(S(=O)(=O)c2ccncc2)cc1)C(F)(F)F (stereo unspecified) | 4% | 5% | 1% | 5% | 1% | 0% | 20% | 76% | 76% | – |
| CC1(C)Oc2ccc(C#N)cc2[C@@H](N2CCCC2=O)[C@@H]1O [CROMAKALIM] | – | – | – | – | – | – | – | – | – | Delta MAP (Rattus norvegicus [29]): -18%; Delta MAP (Rattus norvegicus [21]): -14%; Delta MAP (Rattus norvegicus [22]): -12%; Delta HR (Rattus norvegicus [23]): 20%; Delta HR (Rattus norvegicus [24]): 13%; Delta IC (Rattus norvegicus [30]): 54%; Delta IC (Rattus norvegicus [27]): 104%; Delta IC (Rattus norvegicus [28]): 114%; Delta HR (Rattus norvegicus [13]): 9% |
